“And” between values parts separate entries of the source, which are not always exact repeats. Equal values may be shown once.
Molecular target: T1, STS (Homo sapiens, UniProt P08842)
T1 construct: expressed in transfected cells; host or cells: HEK-293 cells stably transfected with STS (G418 selection), obtained from Dr. Van Luu-The; used as freeze-thaw homogenate
T1 sequence (P08842 22-583): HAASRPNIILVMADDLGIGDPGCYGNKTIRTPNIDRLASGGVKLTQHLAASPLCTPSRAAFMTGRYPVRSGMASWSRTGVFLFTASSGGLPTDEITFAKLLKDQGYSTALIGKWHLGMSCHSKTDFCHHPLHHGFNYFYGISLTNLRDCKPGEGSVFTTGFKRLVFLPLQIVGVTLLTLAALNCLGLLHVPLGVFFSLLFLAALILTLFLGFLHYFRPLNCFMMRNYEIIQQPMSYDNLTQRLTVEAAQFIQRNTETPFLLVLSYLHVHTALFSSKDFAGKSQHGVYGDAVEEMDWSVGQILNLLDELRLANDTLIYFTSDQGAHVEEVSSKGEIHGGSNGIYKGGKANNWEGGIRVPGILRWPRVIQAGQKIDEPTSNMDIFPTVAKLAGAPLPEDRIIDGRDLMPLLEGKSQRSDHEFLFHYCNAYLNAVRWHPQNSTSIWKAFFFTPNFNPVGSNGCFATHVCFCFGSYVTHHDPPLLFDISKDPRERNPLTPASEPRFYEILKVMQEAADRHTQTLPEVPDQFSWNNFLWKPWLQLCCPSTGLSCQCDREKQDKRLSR
Assay: STS inhibition of libraries 1-EO to 4-EO, homogenate of STS transfected HEK-293 cells
Format: biochemical
Conditions: mean ± SEM, triplicate
Experimental: The enzymatic assay was performed using homogenate of STS transfected HEK-293 cells as the source of enzyme activity. The transformation of [^3H]-E1S into [^3H]-E1 was measured using scintillation counting of labeled E1S and E1 in the aqueous and organic phases, respectively. Newly synthesized sulfamate compounds were tested at two concentrations (0.1 μM and 1 μM). Libraries 1-EO and 2-EO were synthesized using the p- and m-benzamide spacers as 1st level of molecular diversity and the same wide variety of secondary amines as 2nd level of diversity (Table 2), which were chosen in a somewhat random fashion while including a different pattern, format and heteroatom. […] Compounds 1-EO-07, 1-EO-09 and 1-EO-10 represent a starting point for optimization, as they show more than 36% of inhibition when tested at a concentration of 0.1 μM. These compounds have relatively hydrophobic substituents compared to the rest of the library members. […] The average log P value for the rest of the library, excluding these three compounds, is 1.93.
This enzymatic assay was carried out according to a procedure previously described for the transformation of substrate [^3H]-E1S (100 μM) into [^3H]-E1 by homogenated HEK-293 cells over-expressing the enzyme activity.^56,73

## NS(=O)(=O)Oc1ccc2c(c1)CN(C(=O)c1ccc(CN3CCOCC3)cc1)CC2 [1-EO-01]
0.1 μM
  STS inhibition (%): 10.9 ± 3.5%
1 μM
  STS inhibition (%): 50.6 ± 1.2%

## NS(=O)(=O)Oc1ccc2c(c1)CN(C(=O)c1ccc(CN3CCCCC3)cc1)CC2 [1-EO-02]
0.1 μM
  STS inhibition (%): 11.5 ± 2.4%
1 μM
  STS inhibition (%): 38.3 ± 3.6%

## NS(=O)(=O)Oc1ccc2c(c1)CN(C(=O)c1ccc(CN3CCSCC3)cc1)CC2 [1-EO-03]
0.1 μM
  STS inhibition (%): 32.3 ± 1.0%
1 μM
  STS inhibition (%): 80.2 ± 0.9%

## CN1CCN(Cc2ccc(C(=O)N3CCc4ccc(OS(N)(=O)=O)cc4C3)cc2)CC1 [1-EO-04]
0.1 μM
  STS inhibition (%): 2.9 ± 0.5%
1 μM
  STS inhibition (%): 23.3 ± 1.3%

## NS(=O)(=O)Oc1ccc2c(c1)CN(C(=O)c1ccc(CN3CCN(Cc4ccccc4)CC3)cc1)CC2 [1-EO-05]
0.1 μM
  STS inhibition (%): 20.8 ± 3.7%
1 μM
  STS inhibition (%): 75.8 ± 1.6%

## NS(=O)(=O)Oc1ccc2c(c1)CN(C(=O)c1ccc(CN3CCN(c4ncccn4)CC3)cc1)CC2 [1-EO-06]
0.1 μM
  STS inhibition (%): 14.7 ± 3.6%
1 μM
  STS inhibition (%): 41.9 ± 0.8%

## NS(=O)(=O)Oc1ccc2c(c1)CN(C(=O)c1ccc(CN3CCC(Cc4ccccc4)CC3)cc1)CC2 [1-EO-07]
1 μM
  STS inhibition (%): 81.3 ± 0.5%

## NS(=O)(=O)Oc1ccc2c(c1)CN(C(=O)c1ccc(CN3CCC(N4CCCCC4)CC3)cc1)CC2 [1-EO-08]
0.1 μM
  STS inhibition (%): 8.5 ± 1.2%
1 μM
  STS inhibition (%): 53.7 ± 4.7%

## CCN(Cc1ccccc1)Cc1ccc(C(=O)N2CCc3ccc(OS(N)(=O)=O)cc3C2)cc1 [1-EO-09]
1 μM
  STS inhibition (%): 83.6 ± 0.2%
1 μM, listed as 1-EO-9, 1 µM
  STS inhibition (%): 84%

## CCCN(CCC)Cc1ccc(C(=O)N2CCc3ccc(OS(N)(=O)=O)cc3C2)cc1 [1-EO-10]
1 μM
  STS inhibition (%): 84.7 ± 0.2%

## NS(=O)(=O)Oc1ccc2c(c1)CN(C(=O)c1cccc(CN3CCOCC3)c1)CC2 [2-EO-01]
0.1 μM
  STS inhibition (%): 0.0 ± 4.7%
1 μM
  STS inhibition (%): 20.9 ± 4.4%

## NS(=O)(=O)Oc1ccc2c(c1)CN(C(=O)c1cccc(CN3CCCCC3)c1)CC2 [2-EO-02]
0.1 μM
  STS inhibition (%): 1.0 ± 5.1%
1 μM
  STS inhibition (%): 11.9 ± 2.6%

## NS(=O)(=O)Oc1ccc2c(c1)CN(C(=O)c1cccc(CN3CCSCC3)c1)CC2 [2-EO-03]
0.1 μM
  STS inhibition (%): 2.3 ± 0.1%
1 μM
  STS inhibition (%): 39.6 ± 2.8%

## CN1CCN(Cc2cccc(C(=O)N3CCc4ccc(OS(N)(=O)=O)cc4C3)c2)CC1 [2-EO-04]
0.1 μM
  STS inhibition (%): 0.0 ± 12.2%
1 μM
  STS inhibition (%): 12.6 ± 2.3%

## NS(=O)(=O)Oc1ccc2c(c1)CN(C(=O)c1cccc(CN3CCN(Cc4ccccc4)CC3)c1)CC2 [2-EO-05]
0.1 μM
  STS inhibition (%): 0.0 ± 3.1%
1 μM
  STS inhibition (%): 23.7 ± 0.6%

## NS(=O)(=O)Oc1ccc2c(c1)CN(C(=O)c1cccc(CN3CCN(c4ncccn4)CC3)c1)CC2 [2-EO-06]
0.1 μM
  STS inhibition (%): 1.6 ± 1.6%
1 μM
  STS inhibition (%): 24.4 ± 0.4%

## NS(=O)(=O)Oc1ccc2c(c1)CN(C(=O)c1cccc(CN3CCC(Cc4ccccc4)CC3)c1)CC2 [2-EO-07]
0.1 μM
  STS inhibition (%): 1.4 ± 0.6%
1 μM
  STS inhibition (%): 41.9 ± 2.7%

## NS(=O)(=O)Oc1ccc2c(c1)CN(C(=O)c1cccc(CN3CCC(N4CCCCC4)CC3)c1)CC2 [2-EO-08]
0.1 μM
  STS inhibition (%): 0.0 ± 2.4%
1 μM
  STS inhibition (%): 8.0 ± 1.1%

## CCN(Cc1ccccc1)Cc1cccc(C(=O)N2CCc3ccc(OS(N)(=O)=O)cc3C2)c1 [2-EO-09]
0.1 μM
  STS inhibition (%): 17% and 17.3 ± 2.5%
1 μM
  STS inhibition (%): 69.0 ± 0.0%

## CCCN(CCC)Cc1cccc(C(=O)N2CCc3ccc(OS(N)(=O)=O)cc3C2)c1 [2-EO-10]
0.1 μM
  STS inhibition (%): 8.3 ± 0.0%
1 μM
  STS inhibition (%): 54.8 ± 1.2%

## CCCN(Cc1ccccc1)Cc1ccc(C(=O)N2CCc3ccc(OS(N)(=O)=O)cc3C2)cc1 [3-EO-01]
0.1 μM
  STS inhibition (%): 64.8 ± 3.8%
1 μM
  STS inhibition (%): 94.3 ± 0.3%

## NS(=O)(=O)Oc1ccc2c(c1)CN(C(=O)c1ccc(CN(CCO)Cc3ccccc3)cc1)CC2 [3-EO-02]
0.1 μM
  STS inhibition (%): 27.9 ± 2.6%
1 μM
  STS inhibition (%): 78.0 ± 1.1%

## NS(=O)(=O)Oc1ccc2c(c1)CN(C(=O)c1ccc(CN(CCCO)Cc3ccccc3)cc1)CC2 [3-EO-03]
0.1 μM
  STS inhibition (%): 5.7 ± 4.4%
1 μM
  STS inhibition (%): 64.3 ± 1.6%

## CN(C)CCN(Cc1ccccc1)Cc1ccc(C(=O)N2CCc3ccc(OS(N)(=O)=O)cc3C2)cc1 [3-EO-04]
0.1 μM
  STS inhibition (%): 13.9 ± 4.8%
1 μM
  STS inhibition (%): 57.8 ± 3.4%

## CN(C)CCCN(Cc1ccccc1)Cc1ccc(C(=O)N2CCc3ccc(OS(N)(=O)=O)cc3C2)cc1 [3-EO-05]
0.1 μM
  STS inhibition (%): 16.2 ± 4.6%
1 μM
  STS inhibition (%): 61.6 ± 4.9%

## CN(CCN1CCCCC1)Cc1ccc(C(=O)N2CCc3ccc(OS(N)(=O)=O)cc3C2)cc1 [3-EO-06]
0.1 μM
  STS inhibition (%): 0.3 ± 1.7%
1 μM
  STS inhibition (%): 26.8 ± 13.5%

## CN(CCCN1CCCCC1)Cc1ccc(C(=O)N2CCc3ccc(OS(N)(=O)=O)cc3C2)cc1 [3-EO-07]
0.1 μM
  STS inhibition (%): 17.4 ± 12.3%
1 μM
  STS inhibition (%): 40.7 ± 8.6%

## CN(C)CCN(CCN(C)C)Cc1ccc(C(=O)N2CCc3ccc(OS(N)(=O)=O)cc3C2)cc1 [3-EO-08]
0.1 μM
  STS inhibition (%): 3.8 ± 9.6%
1 μM
  STS inhibition (%): 15.9 ± 21.5%

## CC(C)CCN(CCC(C)C)Cc1ccc(C(=O)N2CCc3ccc(OS(N)(=O)=O)cc3C2)cc1 [3-EO-09]
0.1 μM
  STS inhibition (%): 47.0 ± 13.0%
1 μM
  STS inhibition (%): 90.8 ± 1.7%

## NS(=O)(=O)Oc1ccc2c(c1)CN(C(=O)c1ccc(CN3CCc4ccccc4C3)cc1)CC2 [3-EO-10]
0.1 μM
  STS inhibition (%): 56.0 ± 7.2%
1 μM
  STS inhibition (%): 83.0 ± 11.9%

## NS(=O)(=O)Oc1ccc2c(c1)CN(C(=O)c1ccc(CN(Cc3ccccc3)Cc3ccco3)cc1)CC2 [3-EO-11]
0.1 μM
  STS inhibition (%): 91% and 90.8 ± 2.6%
1 μM
  STS inhibition (%): 98.2 ± 0.4%

## CCN(Cc1ccc(C(=O)N2CCc3ccc(OS(N)(=O)=O)cc3C2)cc1)Cc1cccc(Br)c1 [3-EO-12]
0.1 μM
  STS inhibition (%): 80% and 80.2 ± 8.0%
1 μM
  STS inhibition (%): 97.2 ± 0.6%

## CCN(Cc1ccc(Br)cc1)Cc1ccc(C(=O)N2CCc3ccc(OS(N)(=O)=O)cc3C2)cc1 [3-EO-13]
0.1 μM
  STS inhibition (%): 78% and 78.2 ± 1.7%
1 μM
  STS inhibition (%): 95.9 ± 0.6%

## CCN(Cc1ccc(C(=O)N2CCc3ccc(OS(N)(=O)=O)cc3C2)cc1)Cc1ccccn1 [3-EO-14]
0.1 μM
  STS inhibition (%): 42.5 ± 3.5%
1 μM
  STS inhibition (%): 87.7 ± 0.7%

## CCN(Cc1ccc(C(=O)N2CCc3ccc(OS(N)(=O)=O)cc3C2)cc1)Cc1cccnc1 [3-EO-15]
0.1 μM
  STS inhibition (%): 35.7 ± 4.3%
1 μM
  STS inhibition (%): 85.2 ± 1.7%

## CCN(Cc1ccncc1)Cc1ccc(C(=O)N2CCc3ccc(OS(N)(=O)=O)cc3C2)cc1 [3-EO-16]
0.1 μM
  STS inhibition (%): 47.0 ± 1.8%
1 μM
  STS inhibition (%): 86.6 ± 1.8%

## CCN(Cc1ccc(F)cc1)Cc1ccc(C(=O)N2CCc3ccc(OS(N)(=O)=O)cc3C2)cc1 [3-EO-17]
0.1 μM
  STS inhibition (%): 69.1 ± 1.9%
1 μM
  STS inhibition (%): 91.2 ± 2.7%

## CCCN(Cc1ccccc1)Cc1cccc(C(=O)N2CCc3ccc(OS(N)(=O)=O)cc3C2)c1 [4-EO-01]
0.1 μM
  STS inhibition (%): 23.1 ± 7.5%
1 μM
  STS inhibition (%): 67.4 ± 10.9%

## NS(=O)(=O)Oc1ccc2c(c1)CN(C(=O)c1cccc(CN(CCO)Cc3ccccc3)c1)CC2 [4-EO-02]
0.1 μM
  STS inhibition (%): 26.7 ± 7.2%
1 μM
  STS inhibition (%): 32.4 ± 6.3%

## NS(=O)(=O)Oc1ccc2c(c1)CN(C(=O)c1cccc(CN(CCCO)Cc3ccccc3)c1)CC2 [4-EO-03]
0.1 μM
  STS inhibition (%): 25.8 ± 3.9%
1 μM
  STS inhibition (%): 37.3 ± 7.0%

## CN(C)CCN(Cc1ccccc1)Cc1cccc(C(=O)N2CCc3ccc(OS(N)(=O)=O)cc3C2)c1 [4-EO-04]
0.1 μM
  STS inhibition (%): 0.0 ± 0.0%
1 μM
  STS inhibition (%): 28.6 ± 2.2%
